PubChem BioAssay AID248 (DTP/NCI, 2004)
Values joined by “and” are separate entries in the source; they are usually repeats but may differ in a detail not shown here. Equal values may be shown once. Inconclusive results and toxic doses are left out. Cut-off read from the data, not from the text of the source: active = T/C of 150% or more; inactive = T/C below 125%.

Tested on: L1210 leukemia ip in BDF1 mice, survival T/C
Assay: NCI In Vivo Anticancer Drug Screen. Data for tumor model L1210 Leukemia (intraperitoneal) in B6D2F1 (BDF1) mice
Settings: endpoint: mean survival time, higher = longer survival
Outline: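 Each compound was tested against a transplantable tumor grown in mice. The endpoint was survival, with treated animals benchmarked against vehicle controls as a simple ratio.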

[1] = dose: 5.0 mg/kg/injection, schedule: Q01DX001 (ip), vehicle: saline
[2] = dose: 10.0 mg/kg/injection, schedule: Q01DX001 (ip), vehicle: saline
[3] = dose: 20.0 mg/kg/injection, schedule: Q01DX001 (ip), vehicle: saline
[4] = dose: 400.0 mg/kg/injection, schedule: Q01DX001 (ip), vehicle: carboxymethylcellulose (CMC)
[5] = dose: 100.0 mg/kg/injection, schedule: Q01DX001 (ip), vehicle: acetone
[6] = dose: 200.0 mg/kg/injection, schedule: Q01DX001 (ip), vehicle: acetone
[7] = dose: 400.0 mg/kg/injection, schedule: Q01DX001 (ip), vehicle: acetone
[8] = dose: 100.0 mg/kg/injection, schedule: Q04DX002 (ip), vehicle: Klucel (hydroxypropylcellulose) (HPC)
[9] = dose: 200.0 mg/kg/injection, schedule: Q04DX002 (ip), vehicle: Klucel (hydroxypropylcellulose) (HPC)
[10] = dose: 400.0 mg/kg/injection, schedule: Q04DX002 (ip), vehicle: Klucel (hydroxypropylcellulose) (HPC)
[11] = dose: 100.0 mg/kg/injection, schedule: Q01DX009 (ip), vehicle: Klucel (hydroxypropylcellulose) (HPC)
[12] = dose: 100.0 mg/kg/injection, schedule: Q04DX003 (ip), vehicle: Klucel (hydroxypropylcellulose) (HPC)
[13] = dose: 200.0 mg/kg/injection, schedule: Q01DX009 (ip), vehicle: Klucel (hydroxypropylcellulose) (HPC)
[14] = dose: 200.0 mg/kg/injection, schedule: Q04DX003 (ip), vehicle: Klucel (hydroxypropylcellulose) (HPC)
[15] = dose: 400.0 mg/kg/injection, schedule: Q01DX009 (ip), vehicle: Klucel (hydroxypropylcellulose) (HPC)
[16] = dose: 400.0 mg/kg/injection, schedule: Q04DX003 (ip), vehicle: Klucel (hydroxypropylcellulose) (HPC)
[17] = dose: 100.0 mg/kg/injection, schedule: Q01DX001 (ip), vehicle: saline
[18] = dose: 200.0 mg/kg/injection, schedule: Q01DX001 (ip), vehicle: saline
[19] = dose: 400.0 mg/kg/injection, schedule: Q01DX001 (ip), vehicle: saline
[20] = dose: 100.0 mg/kg/injection, schedule: Q01DX009 (ip), vehicle: saline
[21] = dose: 100.0 mg/kg/injection, schedule: Q04DX003 (ip), vehicle: saline with Tween-80
[22] = dose: 200.0 mg/kg/injection, schedule: Q04DX003 (ip), vehicle: saline with Tween-80
[23] = dose: 400.0 mg/kg/injection, schedule: Q04DX003 (ip), vehicle: saline with Tween-80

Measured: T/C

O=C(CBr)c1ccc(F)cc1
inactive: dose: 2.0 mg/kg/injection, schedule: Q01DX015 (ip), vehicle: carboxymethylcellulose (CMC) 93 % of control | dose: 4.0 mg/kg/injection, schedule: Q01DX015 (ip), vehicle: carboxymethylcellulose (CMC) 105 % of control | [1] 97 % of control | dose: 8.0 mg/kg/injection, schedule: Q01DX015 (ip), vehicle: carboxymethylcellulose (CMC) 88 % of control | [2] 100 % of control | dose: 15.0 mg/kg/injection, schedule: Q01DX015 (ip), vehicle: carboxymethylcellulose (CMC) 97 % of control | [3] 92 % of control | dose: 40.0 mg/kg/injection, schedule: Q01DX001 (ip), vehicle: saline 92 % of control | dose: 80.0 mg/kg/injection, schedule: Q01DX001 (ip), vehicle: saline 97 % of control

CCCC(=O)Nc1ccn(C2OC(COC(=O)CCC)C(OC(=O)CCC)C2OC(=O)CCC)c(=O)n1 (configuration not stated)
inactive: dose: 177.0 mg/kg/injection, schedule: Q01DX001 (ip), vehicle: carboxymethylcellulose (CMC) 101 % of control | dose: 266.0 mg/kg/injection, schedule: Q01DX001 (ip), vehicle: carboxymethylcellulose (CMC) 116 % of control | [4] 117 % of control

CCCCC1(CC)COC(C)(CCc2ccc(OC)cc2)OC1 (configuration not stated)
inactive: [5] 93 % of control | [6] 93 % of control | [7] 90 % of control

CC(=O)OC(C(=O)NC(CC(C)C)C(=O)O)c1ccccc1 (configuration not stated)
inactive: [5] 98 % of control | [6] 94 % of control | [7] 98 % of control

CC(=O)OC(C1SCCCS1)C1CC2C=CC1C2 (configuration not stated)
inactive: [8] 115 % of control | [9] 91 % of control | [10] 105 % of control

O=[N+]([O-])c1ccc(Oc2cccc(C(F)(F)F)c2)nc1
inactive: [11] 101 % of control | [12] 101 % of control | [13] 103 % of control | [14] 95 % of control | [15] 107 % of control | [16] 101 % of control

C#CCn1cnc2c(Cl)ncnc21
inactive: [17] 117 % of control | [18] 97 % of control | [19] 103 % of control

C(=Nc1ccc(-c2ccccc2)cc1)c1ccccc1
inactive: dose: 25.0 mg/kg/injection, schedule: Q01DX009 (ip), vehicle: saline with Tween-80 105 % of control | dose: 50.0 mg/kg/injection, schedule: Q01DX009 (ip), vehicle: saline with Tween-80 97 % of control | dose: 100.0 mg/kg/injection, schedule: Q01DX009 (ip), vehicle: saline with Tween-80 92 % of control

O=C(Nc1cccc(C2=NCCN2)c1)Nc1cccc(C2=NCCN2)c1
inactive: dose: 6.0 mg/kg/injection, schedule: Q01DX Z (ip), vehicle: water 104 % of control | dose: 12.0 mg/kg/injection, schedule: Q01DX Z (ip), vehicle: water 101 % of control | dose: 25.0 mg/kg/injection, schedule: Q01DX Z (ip), vehicle: water 97 % of control

CC(=O)Nc1ccc(C=O)s1
inactive: dose: 100.0 mg/kg/injection, schedule: Q01DX001 (ip), vehicle: carboxymethylcellulose (CMC) 97 % of control | dose: 200.0 mg/kg/injection, schedule: Q01DX001 (ip), vehicle: carboxymethylcellulose (CMC) 94 % of control | [4] 103 % of control

O=C(O)C1CCCCN1O (configuration not stated)
inactive: [17] 102 % of control | [18] 104 % of control | [19] 104 % of control

O=C(Nc1ccc(N=Nc2ccccc2)cc1)C1CC1
inactive: [11] 101 % of control | [13] 100 % of control | [15] 94 % of control

Cc1cc(Cl)cc(C)c1OC(=O)Nc1ccccc1C(F)(F)F
inactive: [20] 98 % of control | dose: 200.0 mg/kg/injection, schedule: Q01DX009 (ip), vehicle: saline 91 % of control | dose: 400.0 mg/kg/injection, schedule: Q01DX009 (ip), vehicle: saline 112 % of control

CC1=NC(C)(C)C(C)=C1C
inactive: dose: 25.0 mg/kg/injection, schedule: Q04DX002 (ip), vehicle: saline with Tween-80 91 % of control | dose: 50.0 mg/kg/injection, schedule: Q04DX002 (ip), vehicle: saline with Tween-80 94 % of control | dose: 100.0 mg/kg/injection, schedule: Q04DX002 (ip), vehicle: saline with Tween-80 91 % of control

C[N+](C)(C)Cc1ccccc1
inactive: dose: 1.56 mg/kg/injection, schedule: Q01DX009 (ip), vehicle: saline 102 % of control | dose: 3.12 mg/kg/injection, schedule: Q01DX009 (ip), vehicle: saline 91 % of control | [1] 98 % of control | dose: 6.25 mg/kg/injection, schedule: Q01DX009 (ip), vehicle: saline 117 % of control | dose: 6.5 mg/kg/injection, schedule: Q01DX009 (ip), vehicle: saline 100 % of control | [2] 102 % of control and 109 % of control | dose: 12.0 mg/kg/injection, schedule: Q04DX003 (ip), vehicle: saline 113 % of control | dose: 12.5 mg/kg/injection, schedule: Q01DX009 (ip), vehicle: saline 100 % of control | [3] 98 % of control and 91 % of control | dose: 25.0 mg/kg/injection, schedule: Q01DX009 (ip), vehicle: saline 99 % of control and 107 % of control | dose: 25.0 mg/kg/injection, schedule: Q04DX003 (ip), vehicle: saline 87 % of control | dose: 50.0 mg/kg/injection, schedule: Q01DX009 (ip), vehicle: saline 96 % of control | [20] 96 % of control

NC(=O)NC(CC(=O)O)C(=O)O (configuration not stated)
inactive: [21] 117 % of control | [22] 101 % of control | [23] 92 % of control

CCCCCCCCCCCCNC1=C(Cl)C(=O)C(=O)c2cccnc21
inactive: [21] 98 % of control | [22] 101 % of control | [23] 95 % of control

CN(C)C(=S)SCc1c(Cl)c(Cl)c(Cl)c(Cl)c1Cl
inactive: [12] 105 % of control | [14] 100 % of control | [16] 94 % of control

CN(C)C(=S)SC(=S)N(C)C
inactive: dose: 25.0 mg/kg/injection, schedule: Q04DX002 (ip), vehicle: Klucel (hydroxypropylcellulose) (HPC) 106 % of control | dose: 50.0 mg/kg/injection, schedule: Q04DX002 (ip), vehicle: Klucel (hydroxypropylcellulose) (HPC) 100 % of control | [8] 89 % of control | [9] 91 % of control | [10] 98 % of control

Cc1ccc(OS(=O)(=O)c2ccc([N+](=O)[O-])cc2)cc1
inactive: [11] 97 % of control | [12] 97 % of control | [13] 96 % of control | [14] 101 % of control | [15] 95 % of control | [16] 100 % of control

COc1ccccc1C(=O)P(=O)(OC)OC
inactive: [17] 104 % of control | [18] 93 % of control | [19] 95 % of control
